The conditions of data set [1]: scan speed 2° C./min, 20 to 120° C.; FIG. 6.
Data set [2] in a line: Measurement of particle size distribution by laser diffractometry (Microtrac X100). The note with it: Sodium Salt; for particle size distribution: Microtrac X100, FIG. 4 and FIG. 5; for 90% cumulative diameter: calculated by measurement of the particle size distribution. Type of data set: physicochemical. The procedure:
The measurement of particle size distribution by laser diffractometry can be conducted, for example, by using “Microtrac X100” (made by Leeds And Northrup). In the case where the particle size distribution of the amorphous substance of sulfoxide derivative (I) or the salt thereof, which is prepared by conducting the above-mentioned heat-drying, is measured by the laser diffractometry, the amorphous substance of sulfoxide derivative (I) or the salt thereof has 50 μm or less, preferably 30 μm or less of average particle diameter, and 80 μm or less, preferably 50 μm or less of 90% cumulative diameter.

Data set [3] is described as follows: Measurement of specific surface (nitrogen-absorption isotherm, BET method). It is filed as physicochemical. The note with it: Sodium Salt; for Specific surface: BET method, nitrogen absorption at 77 K after vacuum degassing at 50° C.; for Specific surface, relative comparison: relative to the freeze-dried product. The method, then: Measurement of Specific Surface:
As for each of amorphous substances of 2-[[4-(3-methoxypropoxy)-3-methylpyridine-2-yl]methylsulfinyl]-1H-benzimidazole sodium salt obtained by freeze-drying (Reference example 2), heat-drying (Example 3), respectively, the nitrogen-absorption isotherms were measured at liquid nitrogen temperature (77 K) by a high accuracy full automatic gas absorption equipment “BELSORP 36” (prepared by Japan Bell) after vacuum degassing at 50° C. These isotherms were analyzed by BET method to obtain the specific surface.

Regarding `CC(C)=O.COCCCOc1ccnc(C[S+]([O-])c2nc3ccccc3[n-]2)c1C.[Na+]` (stereo not shown) [Acetone Complex of 2-[[4-(3-methoxypropoxy)-3-methylpyridine-2-yl]methylsulfinyl]-1H-benzimidazole Sodium Salt], in data set [1], the “temperature at which the acetone starts to be effectively decreased” value was no less than 76.7 °C and the “temperature at which the weight starts to be decreased” value was no less than 65.7 °C.

For the compound `COCCCOc1ccnc(C[S+]([O-])c2nc3ccccc3[nH]2)c1C.[Na]` (stereo not shown) [The freeze-dried product, 2-[[4-(3-methoxypropoxy)-3-methylpyridine-2-yl]methylsulfinyl]-1H-benzimidazole Sodium Salt], in data set [2], the particle size distribution entry was “broad” and the 90% cumulative diameter is recorded as 192.3 μm. Moreover, in data set [3], the Specific surface came to 2.3 m^2/g and the “Specific surface, relative comparison” value amounted to 1.00.

Turning to `COCCCOc1ccnc(C[S+]([O-])c2nc3ccccc3[nH]2)c1C.[Na]` (stereo not shown) [The heat-dried product, 2-[[4-(3-methoxypropoxy)-3-methylpyridine-2-yl]methylsulfinyl]-1H-benzimidazole Sodium Salt], in data set [2], the particle size distribution entry is “sharp” and the 90% cumulative diameter was 18.0 μm. In data set [3], the Specific surface was found to be 1.6 m^2/g and the “Specific surface, relative comparison” value amounted to 0.70.

(Values after US7754887B2, “Process for production of sulfoxide derivatives or salts thereof in the amorphous state” (EISAI R&D Management Co., Ltd., priority 2003, dated 2010).)
